{"source": "ChEMBL document CHEMBL1201862", "about": "“PubChem BioAssay data set” (2004)", "key": {"[1]": {"target": "T1, Coagulation factor XII (Homo sapiens, UniProt P00748)", "T1 sequence (P00748 whole entry)": "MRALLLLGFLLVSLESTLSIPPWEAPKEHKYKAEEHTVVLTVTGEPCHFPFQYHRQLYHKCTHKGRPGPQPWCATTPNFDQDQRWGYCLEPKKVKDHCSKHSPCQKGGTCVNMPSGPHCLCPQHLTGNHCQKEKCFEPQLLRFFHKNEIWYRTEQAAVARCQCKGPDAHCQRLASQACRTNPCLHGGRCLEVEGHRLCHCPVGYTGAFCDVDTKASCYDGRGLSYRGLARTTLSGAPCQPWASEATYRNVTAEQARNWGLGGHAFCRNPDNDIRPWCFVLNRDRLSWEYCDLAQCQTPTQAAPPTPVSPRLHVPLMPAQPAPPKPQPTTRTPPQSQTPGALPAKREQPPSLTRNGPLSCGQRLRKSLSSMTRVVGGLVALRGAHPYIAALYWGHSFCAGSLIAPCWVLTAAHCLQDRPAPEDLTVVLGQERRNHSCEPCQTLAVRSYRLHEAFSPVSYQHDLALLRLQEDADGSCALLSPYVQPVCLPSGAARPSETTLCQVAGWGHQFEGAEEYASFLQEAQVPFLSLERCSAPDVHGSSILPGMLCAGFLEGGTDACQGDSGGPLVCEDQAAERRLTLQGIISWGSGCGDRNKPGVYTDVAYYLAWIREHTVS", "test": "activated coagulation factor XII inhibitor potency, concentration-effect curve, cell-free (AID 716)", "assay_type": "functional"}, "[2]": {"target": "Acyl-homoserine lactone acylase PvdQ (Pseudomonas aeruginosa (strain LESB58), UniProt Q9I194)", "test": "PvdQ acylase enzyme activity blockers – biochemical, fluorescence, plate reader and imaging, cherry-picks, dose response (AID 493231)"}, "[3]": {"target": "NADPH oxidase 1 (Homo sapiens, UniProt Q9Y5S8)", "sequence (Q9Y5S8 whole entry)": "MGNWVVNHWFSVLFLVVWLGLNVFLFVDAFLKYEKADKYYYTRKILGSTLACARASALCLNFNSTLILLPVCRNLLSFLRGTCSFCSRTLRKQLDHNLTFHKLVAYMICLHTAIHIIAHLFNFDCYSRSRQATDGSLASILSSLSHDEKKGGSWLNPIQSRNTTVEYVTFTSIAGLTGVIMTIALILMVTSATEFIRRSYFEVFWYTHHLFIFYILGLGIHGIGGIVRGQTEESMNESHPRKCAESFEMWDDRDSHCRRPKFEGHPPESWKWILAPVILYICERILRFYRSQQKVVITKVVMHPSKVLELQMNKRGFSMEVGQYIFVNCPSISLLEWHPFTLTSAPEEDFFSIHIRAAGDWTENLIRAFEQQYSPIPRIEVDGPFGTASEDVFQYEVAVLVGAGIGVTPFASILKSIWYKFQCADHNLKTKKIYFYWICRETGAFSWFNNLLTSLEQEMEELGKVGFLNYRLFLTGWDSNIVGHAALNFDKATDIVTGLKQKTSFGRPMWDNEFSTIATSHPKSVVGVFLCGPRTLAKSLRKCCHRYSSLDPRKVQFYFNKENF", "assay_type": "functional, cell-based"}, "[4]": {"target": "Glyceraldehyde-3-phosphate dehydrogenase (Homo sapiens, UniProt P04406)"}, "[5]": {"target": "T2, Alkaline phosphatase, tissue-nonspecific isozyme (Homo sapiens, UniProt P05186)", "T2 sequence (P05186 whole entry)": "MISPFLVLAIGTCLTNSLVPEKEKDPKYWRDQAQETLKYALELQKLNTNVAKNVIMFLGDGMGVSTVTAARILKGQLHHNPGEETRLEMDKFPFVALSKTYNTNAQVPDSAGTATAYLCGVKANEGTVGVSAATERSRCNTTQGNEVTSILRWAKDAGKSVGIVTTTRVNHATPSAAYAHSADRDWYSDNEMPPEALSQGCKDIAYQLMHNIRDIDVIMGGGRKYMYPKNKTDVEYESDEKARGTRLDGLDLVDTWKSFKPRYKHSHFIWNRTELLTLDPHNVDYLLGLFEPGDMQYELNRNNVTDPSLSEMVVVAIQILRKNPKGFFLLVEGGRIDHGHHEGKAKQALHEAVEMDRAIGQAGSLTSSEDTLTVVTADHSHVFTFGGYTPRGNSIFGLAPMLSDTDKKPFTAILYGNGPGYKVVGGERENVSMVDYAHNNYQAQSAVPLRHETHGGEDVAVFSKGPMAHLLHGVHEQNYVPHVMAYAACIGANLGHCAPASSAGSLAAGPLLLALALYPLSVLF", "test": "potency against alkaline phosphatase TNAP – biochemical, luminescent, dose response, SAR follow-up (AID 1056)"}, "[6]": {"target": "T3, Induced myeloid leukemia cell differentiation protein Mcl-1 (Homo sapiens, UniProt Q07820)", "T3 sequence (Q07820 whole entry)": "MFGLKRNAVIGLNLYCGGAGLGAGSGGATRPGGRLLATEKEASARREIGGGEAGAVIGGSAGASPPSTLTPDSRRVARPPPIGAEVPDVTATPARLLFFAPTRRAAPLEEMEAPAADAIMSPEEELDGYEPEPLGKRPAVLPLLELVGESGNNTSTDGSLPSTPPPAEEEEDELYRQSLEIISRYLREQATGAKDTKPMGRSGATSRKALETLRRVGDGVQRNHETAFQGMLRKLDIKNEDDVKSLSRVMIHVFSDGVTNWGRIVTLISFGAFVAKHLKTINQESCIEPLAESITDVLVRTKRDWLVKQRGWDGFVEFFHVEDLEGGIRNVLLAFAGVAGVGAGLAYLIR", "assay_type": "functional"}, "[7]": {"target": "T4, SUMO-activating enzyme (Homo sapiens, UniProt Q9UBT2)", "T4 sequence (Q9UBE0 whole entry)": "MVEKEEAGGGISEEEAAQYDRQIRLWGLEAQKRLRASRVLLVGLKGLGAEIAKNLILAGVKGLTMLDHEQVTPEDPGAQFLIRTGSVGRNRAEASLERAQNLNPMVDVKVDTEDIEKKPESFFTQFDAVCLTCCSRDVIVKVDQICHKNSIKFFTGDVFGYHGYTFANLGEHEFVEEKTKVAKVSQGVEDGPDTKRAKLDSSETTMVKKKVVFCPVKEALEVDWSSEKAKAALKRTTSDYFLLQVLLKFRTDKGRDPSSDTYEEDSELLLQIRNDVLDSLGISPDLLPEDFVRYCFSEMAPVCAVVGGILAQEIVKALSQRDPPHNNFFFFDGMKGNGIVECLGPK", "T4 sequence (Q9UBT2 whole entry)": "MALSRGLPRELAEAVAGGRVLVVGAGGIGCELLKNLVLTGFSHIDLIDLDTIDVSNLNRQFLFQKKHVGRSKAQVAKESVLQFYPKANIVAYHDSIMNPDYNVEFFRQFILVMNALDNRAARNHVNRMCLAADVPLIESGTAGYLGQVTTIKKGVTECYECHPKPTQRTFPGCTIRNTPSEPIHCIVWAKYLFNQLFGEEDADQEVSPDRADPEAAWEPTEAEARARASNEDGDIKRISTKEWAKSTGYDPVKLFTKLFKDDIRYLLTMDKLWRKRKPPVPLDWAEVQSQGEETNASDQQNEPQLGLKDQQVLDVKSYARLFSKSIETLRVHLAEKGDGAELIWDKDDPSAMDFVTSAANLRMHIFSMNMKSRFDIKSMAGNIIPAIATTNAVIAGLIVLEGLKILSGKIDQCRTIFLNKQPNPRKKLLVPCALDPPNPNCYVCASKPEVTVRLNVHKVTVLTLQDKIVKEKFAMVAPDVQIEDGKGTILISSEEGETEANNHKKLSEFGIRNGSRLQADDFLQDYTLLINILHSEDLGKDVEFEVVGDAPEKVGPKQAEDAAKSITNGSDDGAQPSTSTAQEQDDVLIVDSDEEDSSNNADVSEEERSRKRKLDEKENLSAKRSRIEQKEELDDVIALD", "test": "blockers of UBC9-mediated SUMO conjugation – biochemical, AlphaScreen, SUMOylation inhibitor project, confirmation (AID 2018)", "assay_type": "functional"}, "[8]": {"target": "T5, Bifunctional protein GlmU (Mycobacterium tuberculosis, UniProt P9WMN3)", "T5 sequence (P9WMN3 whole entry)": "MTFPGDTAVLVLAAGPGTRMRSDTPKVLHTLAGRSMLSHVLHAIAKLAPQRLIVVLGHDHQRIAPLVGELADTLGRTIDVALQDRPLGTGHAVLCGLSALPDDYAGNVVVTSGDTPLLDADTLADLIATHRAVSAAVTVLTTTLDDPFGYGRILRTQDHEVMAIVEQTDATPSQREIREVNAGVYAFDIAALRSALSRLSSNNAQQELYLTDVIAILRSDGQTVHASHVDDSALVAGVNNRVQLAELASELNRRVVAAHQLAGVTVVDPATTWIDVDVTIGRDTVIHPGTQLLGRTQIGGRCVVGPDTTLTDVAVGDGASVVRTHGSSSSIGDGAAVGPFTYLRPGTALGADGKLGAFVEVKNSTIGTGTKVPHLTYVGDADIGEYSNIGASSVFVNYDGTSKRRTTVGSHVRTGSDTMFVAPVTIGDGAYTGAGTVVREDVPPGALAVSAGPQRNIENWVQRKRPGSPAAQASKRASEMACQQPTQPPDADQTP", "test": "Inhibitors of Mycobacterial Glucosamine-1-phosphate acetyl transferase (GlmU). Secondary screen.", "set-up": "species or system Mycobacterium tuberculosis H37Rv"}, "[9]": {"tested_on": "INS1", "test": "INS-1E survival protection against cytokine death – cell-based, luminescence, retest, dose response (AID 449756);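 note: cell death triggered by IL-1 beta plus TNF-alpha plus IFN-gamma mixture; protective hits raise ATP signal compared with cytokine alone wells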", "assay_type": "functional", "conditions": "Rattus norvegicus"}, "[10]": {"target": "Bcl-2-like protein 1 (Homo sapiens, UniProt Q07817)", "sequence (Q07817 whole entry)": "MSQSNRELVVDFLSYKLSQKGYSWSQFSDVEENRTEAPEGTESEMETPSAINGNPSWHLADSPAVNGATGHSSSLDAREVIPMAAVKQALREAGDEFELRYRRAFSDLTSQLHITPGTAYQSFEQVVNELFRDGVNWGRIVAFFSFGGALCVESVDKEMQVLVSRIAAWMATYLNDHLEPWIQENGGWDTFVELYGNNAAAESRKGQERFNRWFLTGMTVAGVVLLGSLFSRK", "test": "blockers of BCLXL peptide binding – biochemical, fluorescence polarization, 1536-well, selectivity assay for MCL1 inhibitor project, dose response (AID 2218)"}, "[11]": {"target": "T6, Small ubiquitin-related modifier 1 (Homo sapiens, UniProt P63165)", "T6 sequence (P63165 whole entry)": "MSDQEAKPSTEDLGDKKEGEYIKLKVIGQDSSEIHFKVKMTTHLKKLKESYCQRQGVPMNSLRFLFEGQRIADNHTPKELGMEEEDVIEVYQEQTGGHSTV", "test": "SUMO1 protein interaction blockers, potency – biochemical, fluorescence polarization, uHTS hits, dose response (AID 624382)", "assay_type": "functional", "conditions": "read-out: IC50_Mean"}, "[12]": {"target": "T6, Small ubiquitin-related modifier 1", "test": "SUMO1 protein-protein binding blockers, potency – biochemical, FRET, dose response (AID 624383)", "assay_type": "functional", "conditions": "read-out: IC50_Mean"}, "[13]": {"target": "Ras and Rab interactor 1/Tyrosine-protein kinase ABL1 (Homo sapiens, UniProt P00519+Q13671)", "assay_type": "functional"}, "[14]": {"target": "T4, SUMO-activating enzyme", "test": "blockers of SAE1/SAE2–UBC9 SUMO transfer – biochemical, HTRF, uHTS, primary screen (AID 2006)", "assay_type": "protein-complex assay"}, "[15]": {"target": "T3, Induced myeloid leukemia cell differentiation protein Mcl-1", "test": "blockers of MCL1 binding to BIM peptide – biochemical, fluorescence polarization, BIM-BH3 peptide, 1536-well, dose response (AID 2217)"}, "[16]": {"target": "Hexokinase (Trypanosoma brucei, UniProt Q38C41)", "sequence (Q38C41 whole entry)": "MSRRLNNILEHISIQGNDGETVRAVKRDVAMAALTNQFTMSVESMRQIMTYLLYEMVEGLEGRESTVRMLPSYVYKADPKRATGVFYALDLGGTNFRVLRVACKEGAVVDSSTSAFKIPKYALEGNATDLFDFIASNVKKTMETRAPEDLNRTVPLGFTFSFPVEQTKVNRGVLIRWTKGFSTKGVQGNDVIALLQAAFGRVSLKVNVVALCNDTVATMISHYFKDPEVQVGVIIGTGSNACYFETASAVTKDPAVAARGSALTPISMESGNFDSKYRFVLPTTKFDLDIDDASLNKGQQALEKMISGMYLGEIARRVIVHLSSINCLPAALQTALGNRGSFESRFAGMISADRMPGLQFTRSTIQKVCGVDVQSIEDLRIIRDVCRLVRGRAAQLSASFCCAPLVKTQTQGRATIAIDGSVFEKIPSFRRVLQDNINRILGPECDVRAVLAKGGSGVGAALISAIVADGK", "test": "Confirmation assay for inhibitors of Trypanosoma brucei hexokinase 1-Analogue-first series. [Related pubchem assays (depositor defined):AID1430, AID1632, AID2516, AID2560, AID2579, AID2600, AID449725, AID492951]", "assay_type": "functional"}, "[17]": {"target": "T7, Sphingosine 1-phosphate receptor 4 (Homo sapiens, UniProt O95977)", "T7 sequence (O95977 whole entry)": "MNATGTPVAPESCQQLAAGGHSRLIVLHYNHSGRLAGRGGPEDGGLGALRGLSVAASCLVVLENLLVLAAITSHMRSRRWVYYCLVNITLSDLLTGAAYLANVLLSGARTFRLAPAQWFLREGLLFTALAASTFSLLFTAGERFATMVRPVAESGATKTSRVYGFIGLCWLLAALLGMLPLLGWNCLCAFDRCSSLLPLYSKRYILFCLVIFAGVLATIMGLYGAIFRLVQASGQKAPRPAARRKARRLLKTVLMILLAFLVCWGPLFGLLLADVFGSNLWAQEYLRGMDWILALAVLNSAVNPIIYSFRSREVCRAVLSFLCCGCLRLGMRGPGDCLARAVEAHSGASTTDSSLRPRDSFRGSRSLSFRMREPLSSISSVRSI", "test": "Late-stage fluorescence dose response cell-based assay to identify agonists of the Sphingosine 1-Phosphate Receptor 4 (S1P4): purchased compounds EC50. [Related pubchem assays (depositor defined):AID1509, AID1523, AID1563, AID1686, AID1701, AID1801]", "assay_type": "functional"}, "[18]": {"target": "Mucolipin-3 (Homo sapiens, UniProt Q8TDD5)", "sequence (Q8TDD5 whole entry)": "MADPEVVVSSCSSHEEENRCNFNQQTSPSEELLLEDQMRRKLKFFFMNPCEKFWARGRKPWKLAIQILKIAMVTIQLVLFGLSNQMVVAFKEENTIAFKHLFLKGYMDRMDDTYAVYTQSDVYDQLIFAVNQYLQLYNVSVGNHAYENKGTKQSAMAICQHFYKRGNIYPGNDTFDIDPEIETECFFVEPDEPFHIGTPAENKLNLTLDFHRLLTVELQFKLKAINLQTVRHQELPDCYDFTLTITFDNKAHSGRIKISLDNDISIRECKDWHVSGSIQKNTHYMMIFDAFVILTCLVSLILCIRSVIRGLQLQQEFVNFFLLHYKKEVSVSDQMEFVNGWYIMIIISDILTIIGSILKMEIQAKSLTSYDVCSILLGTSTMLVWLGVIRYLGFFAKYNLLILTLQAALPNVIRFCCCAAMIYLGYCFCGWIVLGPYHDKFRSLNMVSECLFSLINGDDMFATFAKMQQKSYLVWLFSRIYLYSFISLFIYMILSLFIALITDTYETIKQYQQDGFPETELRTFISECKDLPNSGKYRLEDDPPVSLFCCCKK", "test": "Dose response cell-based high-throughput screening assay for agonists of the transient receptor potential channel ML3 (TRPML3). [Related pubchem assays: 1526, 1424, 1448 ]", "assay_type": "functional"}, "[19]": {"target": "Ion channel NompC (Danio rerio, UniProt Q7T1G6)", "sequence (Q7T1G6 whole entry)": "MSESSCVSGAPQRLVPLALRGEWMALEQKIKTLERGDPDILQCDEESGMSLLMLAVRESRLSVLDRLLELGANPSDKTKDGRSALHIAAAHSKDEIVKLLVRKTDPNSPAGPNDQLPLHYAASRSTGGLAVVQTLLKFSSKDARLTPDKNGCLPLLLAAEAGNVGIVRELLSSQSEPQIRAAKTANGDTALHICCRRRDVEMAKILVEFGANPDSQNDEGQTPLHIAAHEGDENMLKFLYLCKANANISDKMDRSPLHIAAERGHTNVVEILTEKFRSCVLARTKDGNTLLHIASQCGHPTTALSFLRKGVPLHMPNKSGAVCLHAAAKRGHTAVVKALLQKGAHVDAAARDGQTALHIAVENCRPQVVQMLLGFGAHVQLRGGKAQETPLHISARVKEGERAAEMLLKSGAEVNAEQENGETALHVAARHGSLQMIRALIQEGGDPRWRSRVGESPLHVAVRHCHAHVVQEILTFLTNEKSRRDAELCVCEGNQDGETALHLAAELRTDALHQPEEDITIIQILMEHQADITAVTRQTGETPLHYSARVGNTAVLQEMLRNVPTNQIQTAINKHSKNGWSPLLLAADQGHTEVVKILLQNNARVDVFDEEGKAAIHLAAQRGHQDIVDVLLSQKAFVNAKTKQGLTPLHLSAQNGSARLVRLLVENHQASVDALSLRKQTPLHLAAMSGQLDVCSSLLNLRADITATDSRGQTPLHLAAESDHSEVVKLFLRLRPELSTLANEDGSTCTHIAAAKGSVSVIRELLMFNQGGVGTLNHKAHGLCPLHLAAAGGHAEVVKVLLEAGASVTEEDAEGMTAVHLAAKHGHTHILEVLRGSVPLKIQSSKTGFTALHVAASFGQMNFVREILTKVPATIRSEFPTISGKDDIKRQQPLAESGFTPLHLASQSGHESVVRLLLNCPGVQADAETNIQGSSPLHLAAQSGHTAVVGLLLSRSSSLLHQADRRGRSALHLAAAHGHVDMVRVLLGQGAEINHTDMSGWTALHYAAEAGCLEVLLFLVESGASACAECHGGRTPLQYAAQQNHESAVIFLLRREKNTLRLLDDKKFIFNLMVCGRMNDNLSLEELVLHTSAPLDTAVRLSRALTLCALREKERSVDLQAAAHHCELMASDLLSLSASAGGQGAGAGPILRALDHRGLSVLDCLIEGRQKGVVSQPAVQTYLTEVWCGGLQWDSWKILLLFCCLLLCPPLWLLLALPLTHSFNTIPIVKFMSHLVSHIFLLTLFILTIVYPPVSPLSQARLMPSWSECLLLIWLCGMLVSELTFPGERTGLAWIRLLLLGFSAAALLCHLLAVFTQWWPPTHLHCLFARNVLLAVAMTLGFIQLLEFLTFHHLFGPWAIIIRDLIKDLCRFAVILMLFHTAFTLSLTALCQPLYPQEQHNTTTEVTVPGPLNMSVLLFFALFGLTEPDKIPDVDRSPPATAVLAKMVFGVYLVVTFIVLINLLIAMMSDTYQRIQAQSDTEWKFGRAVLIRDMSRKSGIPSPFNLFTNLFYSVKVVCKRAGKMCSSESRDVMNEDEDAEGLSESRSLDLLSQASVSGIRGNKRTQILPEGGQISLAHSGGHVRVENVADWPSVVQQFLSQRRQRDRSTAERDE", "test": "Fluorescence counterscreen assay for TRPML3 agonists: dose response cell-based high-throughput screening assay to identify agonists of the transient receptor potential channel N1 (TRPN1). [Related pubchem assays: 1526, 1424, 1448 ]", "assay_type": "functional"}}, "note": "The source made the active and inactive calls.", "data": [{"compound": "O=C(NCC1CCCO1)c1ccc(COCC(F)(F)C(F)F)cc1", "note": "(stereo unspecified)", "values": [{"measurement": "IC50", "setting": "[1]", "result": "> 50 µM (inactive)"}]}, {"compound": "N#CC(c1ccc(Cl)nn1)c1c(F)cccc1Cl", "note": "(stereo unspecified)", "values": [{"measurement": "AC50", "setting": "[2]", "result": "4.04 µM (active)"}]}, {"compound": "C=C(NNc1c(F)c(F)nc(F)c1F)c1ccncc1", "values": [{"measurement": "IC50", "setting": "[3]", "result": "> 17 µM (not active)"}]}, {"compound": "O=S(=O)(Nc1cnc2ccccc2c1)c1cc(Cl)cc(Cl)c1O", "values": [{"measurement": "IC50", "setting": "[4]", "result": "> 100 µM (not active)"}, {"measurement": "IC50", "setting": "[5]", "result": "69.6 µM (active)"}]}, {"compound": "COC(=O)c1cc(O)cc(OC)c1Oc1cc(C)cc(O)c1C(=O)O", "note": "[ASTERRIC ACID]", "values": [{"measurement": "IC50", "setting": "[6]", "result": "2.42 µM (not active)"}, {"measurement": "IC50", "setting": "[7]", "result": "7.42 µM (active)"}, {"measurement": "IC50", "setting": "[8]", "result": "82.7 µM (active)"}, {"measurement": "AC50", "setting": "[9]", "result": "8.13 µM (active)"}, {"measurement": "IC50", "setting": "[10]", "result": "54.2 µM (not active)"}, {"measurement": "IC50", "setting": "[11]", "result": "> 66.6 µM (inactive)"}, {"measurement": "IC50", "setting": "[12]", "result": "8.12 µM (active)"}, {"measurement": "IC50", "setting": "[13]", "result": "20.7 µM (inactive)"}, {"measurement": "IC50", "setting": "[14]", "result": "17.7 µM (active)"}, {"measurement": "IC50", "setting": "[15]", "result": "5.48 µM (active)"}]}, {"compound": "Cc1cc(=O)n(-c2ccccc2)s1", "values": [{"measurement": "IC50", "setting": "[16]", "result": "> 25 µM (inactive)"}]}, {"compound": "Cc1ccc(OCc2cn3cc(Cl)ccc3n2)c([N+](=O)[O-])n1", "values": [{"measurement": "EC50", "setting": "[17]", "result": "> 50 µM (inactive)"}]}, {"compound": "O=S(=O)(Oc1ccccc1N1CCCCC1)c1ccccc1", "values": [{"measurement": "EC50", "setting": "[18]", "result": "> 29.9 µM (not active)"}, {"measurement": "EC50", "setting": "[19]", "result": "> 29.9 µM (not active)"}]}, {"compound": "Cc1ccc(S(=O)(=O)c2c(C)nn(C(C)(C)C)c2OC(=O)C(C)(C)C)cc1", "values": [{"measurement": "EC50", "setting": "[18]", "result": "5.15 µM (active)"}, {"measurement": "EC50", "setting": "[19]", "result": "> 29.9 µM (not active)"}]}]}
